The numbers were not newly measured in US20060029556A1, “Aqueous-alcoholic depigmenting gels” (GALDERMA RESEARCH & DEVELOPMENT, S.N.C., priority 2002, published 2006), which cites them from elsewhere.

Like-named read-outs stand apart in the source and are kept apart here.

On to `Oc1ccc(O)cc1` [hydroquinone], for which the incidence of irritation result (hydroquinone concentration 10%) is given as “relatively high”, the incidence of irritation result (hydroquinone concentration of 2%) is given as “virtually nonexistent” and the incidence of irritation entry (hydroquinone preparations with a 5% dose) was “reduces greatly”.
